Data reported in patent US20080146555A1, “Uses of Kinase Inhibitors and Compositions Thereof” (GPC Biotech, Inc, priority 2004, published 2008).
Counter-ions that a name gives are not always drawn. Like-named read-outs stand apart in the source and are kept apart here.

How the values were obtained:
[1] = system: PC3 xenograft; assay: PC3 xenograft tumor model; set-up: species or system mice; conditions: mouse, in vivo
Procedure: (§1) Drugs. Compounds of the invention were synthesized and prepared for i.v. administration in a biocompatible vehicle. CPT-11 (Camptosar®, Pharmacia) was obtained as the pharmaceutical drug and was prepared in 5% dextrose-water (D5W). All preparations were made fresh weekly and injection volumes were adjusted to body weight (0.2 ml/20 g mouse).
(§2) Mice/Husbandry. Female nu/nu mice were obtained from Charles River, housed in static microisolators, and provided ad libitum with water and an irradiated standard rodent diet (Purina Pico-Lab Rodent Diet 20).
(§3) Standard Protocol. […] Animals were initially monitored twice weekly for tumor growth and then daily as the implants approached the desired size of approximately 100 mm^3. When the tumors grew to between 62-221 mg in calculated tumor weight, the animals were pair-matched into appropriate experimental treatment groups (8-10 animals/group) and treatment with test compounds was initiated. […] Tumor weights were calculated and body weights were taken twice weekly and animals were observed frequently for adverse drug effects. […]
(§4) Tumors were measured by determining the length and width of the tumor with a digital caliper. […]
(§5) Log cell kill (LCK) is a calculation that determines the percentage of tumor cells that are killed after the initiation of treatment and can be used as a quantitative measure of efficacy: […]

[2] = system: A2780 xenograft; assay: A2780 xenograft tumor model; set-up: species or system mice; conditions: mouse, in vivo
Procedure: as §1, §2, §3, §4, §5

[3] = Maximum tolerated dose in mice; conditions: mouse, in vivo, intravenous
Procedure: Determination of maximum tolerated dose (MTD). Mice at 8 weeks of age were pair-matched into groups of 5-8 animals and preliminary toxicity studies were performed with unknown test compounds. Animals were treated i.v. daily for 10 consecutive days with test compound and were weighed twice weekly. Mice were examined frequently for clinical signs of any adverse drug-related effects. Acceptable toxicity for anti-cancer drugs in mice is defined by the NCl as no mean group weight loss of over 20% and not more than 10% toxic death in treated animals.

[4] = target: T1, CK1 delta (Homo sapiens, UniProt P48730); assay: CK1-Delta kinase assay (B16 assay); type: biochemical
T1 construct: purchased Upstate 14-520
T1 sequence (P48730 whole entry): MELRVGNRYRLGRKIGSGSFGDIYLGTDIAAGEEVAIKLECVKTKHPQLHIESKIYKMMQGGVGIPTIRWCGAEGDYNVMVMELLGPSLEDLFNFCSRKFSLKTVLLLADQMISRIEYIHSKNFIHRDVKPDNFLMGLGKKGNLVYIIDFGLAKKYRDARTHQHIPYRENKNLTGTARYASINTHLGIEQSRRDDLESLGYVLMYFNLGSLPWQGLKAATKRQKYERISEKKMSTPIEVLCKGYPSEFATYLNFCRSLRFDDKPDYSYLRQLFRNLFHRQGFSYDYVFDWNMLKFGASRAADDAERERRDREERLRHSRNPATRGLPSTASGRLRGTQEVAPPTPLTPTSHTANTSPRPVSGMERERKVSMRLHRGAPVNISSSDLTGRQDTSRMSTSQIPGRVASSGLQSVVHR

Row | SMILES | efficacy in PC3 xenograft tumor model [1] | efficacy in A2780 xenograft tumor model [2] | MTD ([3]; CD-1 mice, read-out: MTD, 5/2/5 dose) [mg/kg] | MTD at 5 days ([3]; nu/nu mice) [mg/kg] | MTD ([3]; nu/nu mice, read-out: MTD, single dose) [mg/kg] | IC50 ([4]; CK1 delta, read-out: CSNK1A1 (CK1) Inhibition (IC50), B16) [µM] | IC50 ([4]; kinase panel, read-out: CK1 IC50 (B16)) [µM]
1 | CC(C)N1CCN(C(=O)COc2ccc(-c3n[nH]c4c3C(=O)c3c(NC(=O)NN5CCOCC5)cccc3-4)cc2)CC1 [Compound A37] | high efficacy | high efficacy | – | – | – | – | –
2 | COCCN1CCN(Cc2ccc(-c3n[nH]c4c3C(=O)c3c(NC(=O)NN5CCOCC5)cccc3-4)cc2)CC1 [Compound B16, N-[3-(4-{[4-(2-methoxyethyl)piperazinyl]methyl}phenyl)-4-oxoindeno[2,3-d]pyrazol-5-yl](morpholin-4-ylamino)carboxamide dihydrochloride] | – | – | 40 | ~100 | ~120 | < 0.05 | < 0.1
